Laboratory results as given in article PMC3321071 (Bioorganic & medicinal chemistry letters, 2012).

Tested on: gp41-mediated cell–cell fusion
Experiment: cell–cell fusion
Format: cell-based, HIV-1
Settings: read-out: IC50 in CCF assay

First: H2N-Trp-[Trp]-Leu-OH
Second: H2N-Asn-[Trp]-Trp-OH
The IC50 of the first is lower: 5 µM for the first, 6 to 8 µM for the second. The first is the more potent here.

In the case of H2N-TyrMe-[Trp]-Trp-OH, the IC50 is reported as 6 to 8 µM.
